Assay results from patent publication US4468511A, “C-20- And C-23-Modified macrolide derivatives” (Eli Lilly and Company, priority 1983, dated 1984).
≈ marks a conversion by molar mass, not a printed value. Where two headings read alike, the source gives them in different places.

What was measured:
Format in all cases: cell-based
[1] = tested on: Streptococcus Group D X66; assay: MIC, standard agar-dilution assay
Procedure: (§1) Certain of the derivatives are active against some gram-negative bacteria, such as Pasteurella species. The MIC's in Table II were determined by standard agar-dilution assays. The MIC's in Table III were obtained using a conventional broth-dilution microtiter test.

[2] = tested on: Staphylococcus aureus X1.1; assay: MIC, standard agar-dilution assay; conditions: Staphylococcus aureus, X1.1
Procedure: as §1

[3] = tested on: Klebsiella pneumoniae KAE; assay: MIC, standard agar-dilution assay; conditions: Klebsiella pneumoniae
Procedure: as §1

[4] = tested on: Staphylococcus aureus V41; assay: MIC, standard agar-dilution assay; conditions: Staphylococcus aureus, V41
Procedure: as §1

[5] = tested on: Streptococcus pyogenes C203; assay: MIC, standard agar-dilution assay; conditions: Streptococcus pyogenes, C203
Procedure: as §1

[6] = tested on: Streptococcus pneumoniae Park I; assay: MIC, standard agar-dilution assay; conditions: Streptococcus pneumoniae
Procedure: as §1

Escherichia coli EC14 = assay: MIC, standard agar-dilution assay; conditions: Escherichia coli, EC14
Procedure: as §1

[7] = tested on: Streptococcus pyogenes 9960; assay: MIC, standard agar-dilution assay; conditions: 9960
Procedure: as §1

Escherichia coli TEM = assay: MIC, standard agar-dilution assay; conditions: Escherichia coli
Procedure: as §1

[8] = tested on: Klebsiella pneumoniae X26; assay: MIC, standard agar-dilution assay; conditions: Klebsiella pneumoniae, X26
Procedure: as §1

[9] = tested on: Staphylococcus aureus X400; assay: MIC, standard agar-dilution assay; conditions: Staphylococcus aureus, X400
Procedure: (§2) The MIC's in Table II were determined by standard agar-dilution assays. The MIC's in Table III were obtained using a conventional broth-dilution microtiter test.

[10] = tested on: Staphylococcus epidermidis EPI2; assay: MIC, standard agar-dilution assay; conditions: Staphylococcus epidermidis, EPI2
Procedure: as §2

Staphylococcus aureus = assay: MIC, conventional broth-dilution microtiter test
Procedure: as §1

[11] = tested on: Pasteurella multocida 17E; assay: MIC, conventional broth-dilution microtiter test
Procedure: as §1

Mycoplasma hyorhinis = assay: MIC, conventional broth-dilution microtiter test
Procedure: as §1

[12] = tested on: Pasteurella multocida 22A; assay: MIC, conventional broth-dilution microtiter test
Procedure: as §1

[13] = tested on: Mycoplasma gallisepticum 34159; assay: MIC, conventional broth-dilution microtiter test; conditions: Mycoplasmoides gallisepticum
Procedure: as §1

[14] = tested on: Pasteurella multocida 68C; assay: MIC, conventional broth-dilution microtiter test
Procedure: as §1

[15] = tested on: Pasteurella hemolytica 22C; assay: MIC, conventional broth-dilution microtiter test
Procedure: as §1

Mycoplasma gallisepticum = assay: MIC, conventional broth-dilution microtiter test; conditions: Mycoplasmoides gallisepticum
Procedure: as §1

Mycoplasma synoviae = assay: MIC, conventional broth-dilution microtiter test; conditions: Mycoplasmopsis synoviae
Procedure: as §1

Streptococcus sp. 80 = assay: MIC, conventional broth-dilution microtiter test
Procedure: as §1

[16] = tested on: Pasteurella multocida 40G; assay: MIC, conventional broth-dilution microtiter test
Procedure: as §1

[17] = tested on: Pasteurella hemolytica 41D; assay: MIC, conventional broth-dilution microtiter test
Procedure: as §1

[18] = tested on: Pasteurella multocida 60A; assay: MIC, conventional broth-dilution microtiter test
Procedure: as §1

[19] = tested on: Pasteurella hemolytica 23C; assay: MIC, conventional broth-dilution microtiter test
Procedure: as §1

[20] = tested on: Mycoplasma gallisepticum 41313; assay: MIC, conventional broth-dilution microtiter test; conditions: Mycoplasmoides gallisepticum
Procedure: as §1

[21] = tested on: Staphylococcus epidermidis EPI1; assay: microbe, parasite or virus in culture; conditions: Staphylococcus epidermidis, EPI1
Procedure: as §2

[22] = tested on: Staphylococcus aureus S13E; assay: microbe, parasite or virus in culture
Procedure: as §2

| Structure (SMILES) | MIC [1] [µg/mL] | MIC [2] [µg/mL] | MIC [3] [µg/mL] | MIC [4] [µg/mL] | MIC [5] [µg/mL] | MIC [6] [µg/mL] | MIC (Escherichia coli EC14) [µg/mL] | MIC [7] [µg/mL] | MIC (Escherichia coli TEM) [µg/mL] | MIC [8] [µg/mL] | MIC [9] [µg/mL] | MIC [10] [µg/mL] | MIC (Staphylococcus aureus) [µg/mL] | MIC ([11]; Pasteurella multocida, 17E) [µg/mL] | MIC (Mycoplasma hyorhinis; Mycoplasma) [µg/mL] | MIC ([12]; Pasteurella multocida, 22A) [µg/mL] | MIC [13]; 34159 [µg/mL] | MIC ([14]; Pasteurella multocida, 68C) [µg/mL] | MIC ([15]; Pasteurella, 22C) [µg/mL] | MIC (Mycoplasma synoviae) [µg/mL] | further results |
| --- | --- | --- | --- | --- | --- | --- | --- | --- | --- | --- | --- | --- | --- | --- | --- | --- | --- | --- | --- | --- | --- |
| CCC1OC(=O)CC(O)C(C)C(OC2OC(C)C(OC(C)=O)C(N(C)C)C2OC(C)=O)C(CCOC(=O)Cc2ccccc2)CC(C)C(=O)C=CC(C)=CC1CO (stereo not shown) [Compound 54, 2',4'-Di-O-acetyl-20-O-phenylacetyl-20-dihydro-OMT] | 4 (≈ 4.99 µM) | 2 (≈ 2.49 µM) | > 128 | 2 (≈ 2.49 µM) | 1 (≈ 1.25 µM) | 0.5 (≈ 0.623 µM) | > 128 | 4 (≈ 4.99 µM) | 16 (≈ 20 µM) | 4 (≈ 4.99 µM) | 2 (≈ 2.49 µM) | 2 (≈ 2.49 µM) | 0.78 (≈ 0.973 µM) | 12.5 (≈ 15.6 µM) | 50 (≈ 62.3 µM) | 25 (≈ 31.2 µM) | 3.12 (≈ 3.89 µM) | 6.25 (≈ 7.79 µM) | 12.5 (≈ 15.6 µM) | 25 (≈ 31.2 µM) | MIC (Mycoplasma gallisepticum): 0.048 µg/mL (≈ 0.0599 µM); MIC (Streptococcus sp. 80; Streptococcus, SP.80): 3.12 µg/mL (≈ 3.89 µM); MIC ([16]; Pasteurella multocida, 40G): 25 µg/mL (≈ 31.2 µM); MIC ([17]; Pasteurella, 41D): 12.5 µg/mL (≈ 15.6 µM); MIC ([18]; Pasteurella multocida, 60A): 6.25 µg/mL (≈ 7.79 µM); MIC ([19]; Pasteurella, 23C): 12.5 µg/mL (≈ 15.6 µM); MIC [20]; 41313: 0.78 µg/mL (≈ 0.973 µM); MIC [21]: 2 µg/mL (≈ 2.49 µM); MIC [22]: 2 µg/mL (≈ 2.49 µM) |
| CCC1OC(=O)CC(O)C(C)C(OC2OC(C)C(OC(C)=O)C(N(C)C)C2OC(C)=O)C(CCOC(=O)Cc2ccccc2)CC(C)C(=O)C=CC(C)=CC1COC(=O)Cc1ccccc1 (stereo not shown) [Compound 55, 2',4'-di-O-acetyl-20,23-di-O-phenylacetyl-20-dihydro-OMT] | 8 (≈ 8.69 µM) | 8 (≈ 8.69 µM) | > 128 | 8 (≈ 8.69 µM) | 2 (≈ 2.17 µM) | 1 (≈ 1.09 µM) | > 128 | 8 (≈ 8.69 µM) | > 128 | > 128 | 8 (≈ 8.69 µM) | 2 (≈ 2.17 µM) | 0.78 (≈ 0.848 µM) | > 50 | 50 (≈ 54.3 µM) | > 50 | 3.12 (≈ 3.39 µM) | > 50 | > 50 | 6.25 (≈ 6.79 µM) | MIC (Mycoplasma gallisepticum): 0.097 µg/mL (≈ 0.105 µM); MIC (Streptococcus sp. 80; Streptococcus, SP.80): 1.56 µg/mL (≈ 1.7 µM); MIC ([16]; Pasteurella multocida, 40G): > 50 µg/mL; MIC ([17]; Pasteurella, 41D): > 50 µg/mL; MIC ([18]; Pasteurella multocida, 60A): 50 µg/mL (≈ 54.3 µM); MIC ([19]; Pasteurella, 23C): > 50 µg/mL; MIC [20]; 41313: 0.78 µg/mL (≈ 0.848 µM); MIC [21]: 4 µg/mL (≈ 4.35 µM); MIC [22]: 4 µg/mL (≈ 4.35 µM) |
| CCC1CC(C)C(=O)C=CC(C)=CC(CN2CCCCCCC2)C(CC)OC(=O)CC(O)C(C)C1OC1OC(C)C(OC(C)=O)C(N(C)C)C1OC(C)=O (stereo not shown) [Compound 57] |  |  |  |  |  |  |  |  |  |  |  |  |  |  |  |  |  |  |  | 12.5 (≈ 16.4 µM) | MIC (Staphylococcus aureus; broth-dilution microtiter, read-out: MIC): 0.39 µg/mL (≈ 0.511 µM); MIC ([11]; broth-dilution microtiter, Pasteurella multocida 17E, Bovine isolate, read-out: MIC): 1.56 µg/mL (≈ 2.04 µM); MIC (Mycoplasma hyorhinis; broth-dilution microtiter, Mycoplasma hyorhinis, read-out: MIC): > 50 µg/mL; MIC ([12]; broth-dilution microtiter, Pasteurella multocida 22A, read-out: MIC): 1.56 µg/mL (≈ 2.04 µM); MIC ([13]; broth-dilution microtiter, Mycoplasma gallisepticum 34159, Resistant strain, read-out: MIC): 50 µg/mL (≈ 65.5 µM); MIC ([14]; broth-dilution microtiter, Pasteurella multocida 68C, read-out: MIC): 0.78 µg/mL (≈ 1.02 µM); MIC ([15]; broth-dilution microtiter, Pasteurella hemolytica 22C, read-out: MIC): 0.78 µg/mL (≈ 1.02 µM); MIC (Mycoplasma gallisepticum; broth-dilution microtiter, Mycoplasma gallisepticum, read-out: MIC): 0.78 µg/mL (≈ 1.02 µM); MIC (Streptococcus sp. 80; broth-dilution microtiter, Streptococcus sp. 80, read-out: MIC): 0.195 µg/mL (≈ 0.256 µM); MIC ([16]; broth-dilution microtiter, Pasteurella multocida 40G, read-out: MIC): 1.56 µg/mL (≈ 2.04 µM); MIC ([17]; broth-dilution microtiter, Pasteurella hemolytica 41D, read-out: MIC): 0.78 µg/mL (≈ 1.02 µM); MIC ([18]; broth-dilution microtiter, Pasteurella multocida 60A, Avian isolate, read-out: MIC): 1.56 µg/mL (≈ 2.04 µM); MIC ([19]; broth-dilution microtiter, Pasteurella hemolytica 23C, read-out: MIC): 1.56 µg/mL (≈ 2.04 µM); MIC ([20]; broth-dilution microtiter, Mycoplasma gallisepticum 41313, Resistant strain, read-out: MIC): 50 µg/mL (≈ 65.5 µM) |
